Test results taken from PMC8924359, “ZDQ-0620, a Novel Phosphatidylinositol 3-Kinase Inhibitor, Inhibits Colorectal Carcinoma Cell Proliferation and Suppresses Angiogenesis by Attenuating PI3K/AKT/mTOR Pathway” (Frontiers in Oncology, 2022).

What was measured:
Format in all cases: biochemical
PI3Kα = target: T1, PI3Kα (Homo sapiens, UniProt P42336); experiment: ADP-Glo lipid kinase assay; supported by CETSA/ITDRF-CETSA in HCT116 cells
T1 construct: gene PIK3CA

PI3Kγ = target: T2, PI3Kγ (Homo sapiens, UniProt P48736); experiment: ADP-Glo lipid kinase assay
T2 construct: gene PIK3CG
T2 sequence (P48736 whole entry): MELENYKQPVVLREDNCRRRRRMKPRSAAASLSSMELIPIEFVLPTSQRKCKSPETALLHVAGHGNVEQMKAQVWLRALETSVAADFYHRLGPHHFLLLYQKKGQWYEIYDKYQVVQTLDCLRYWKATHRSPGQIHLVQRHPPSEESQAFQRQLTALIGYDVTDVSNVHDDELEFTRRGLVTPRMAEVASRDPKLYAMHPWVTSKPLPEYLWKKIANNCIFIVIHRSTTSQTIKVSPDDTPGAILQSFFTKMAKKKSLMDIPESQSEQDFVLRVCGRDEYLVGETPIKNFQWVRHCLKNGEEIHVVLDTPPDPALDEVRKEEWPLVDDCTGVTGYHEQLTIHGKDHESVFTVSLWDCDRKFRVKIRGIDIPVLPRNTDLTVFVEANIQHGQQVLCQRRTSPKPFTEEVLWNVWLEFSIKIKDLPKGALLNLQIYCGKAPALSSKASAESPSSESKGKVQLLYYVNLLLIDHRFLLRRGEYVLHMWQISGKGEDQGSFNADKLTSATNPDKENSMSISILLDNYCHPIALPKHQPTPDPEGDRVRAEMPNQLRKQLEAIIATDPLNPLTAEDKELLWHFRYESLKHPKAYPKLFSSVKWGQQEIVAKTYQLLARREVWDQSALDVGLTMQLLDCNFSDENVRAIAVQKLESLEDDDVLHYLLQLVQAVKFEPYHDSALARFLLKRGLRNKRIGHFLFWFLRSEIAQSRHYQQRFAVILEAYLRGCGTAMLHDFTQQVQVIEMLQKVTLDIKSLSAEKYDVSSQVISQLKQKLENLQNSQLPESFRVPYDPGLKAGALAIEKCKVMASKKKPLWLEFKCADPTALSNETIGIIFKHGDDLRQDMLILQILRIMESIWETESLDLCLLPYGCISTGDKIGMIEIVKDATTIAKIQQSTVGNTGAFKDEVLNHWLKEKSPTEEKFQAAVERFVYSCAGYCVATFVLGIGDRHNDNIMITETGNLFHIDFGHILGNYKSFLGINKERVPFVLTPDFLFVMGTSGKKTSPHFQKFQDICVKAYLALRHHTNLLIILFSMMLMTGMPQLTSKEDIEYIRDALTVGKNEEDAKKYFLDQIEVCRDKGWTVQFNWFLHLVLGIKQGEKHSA
From the text: ADP-Glo lipid kinase assay on PI3Kγ | IC50 of ZDQ-0620 against PI3K kinase in vitro.

PI3Kδ = target: T3, PI3Kδ (Homo sapiens, UniProt O00329); experiment: ADP-Glo lipid kinase assay
T3 construct: gene PIK3CD
T3 sequence (O00329 1-1044): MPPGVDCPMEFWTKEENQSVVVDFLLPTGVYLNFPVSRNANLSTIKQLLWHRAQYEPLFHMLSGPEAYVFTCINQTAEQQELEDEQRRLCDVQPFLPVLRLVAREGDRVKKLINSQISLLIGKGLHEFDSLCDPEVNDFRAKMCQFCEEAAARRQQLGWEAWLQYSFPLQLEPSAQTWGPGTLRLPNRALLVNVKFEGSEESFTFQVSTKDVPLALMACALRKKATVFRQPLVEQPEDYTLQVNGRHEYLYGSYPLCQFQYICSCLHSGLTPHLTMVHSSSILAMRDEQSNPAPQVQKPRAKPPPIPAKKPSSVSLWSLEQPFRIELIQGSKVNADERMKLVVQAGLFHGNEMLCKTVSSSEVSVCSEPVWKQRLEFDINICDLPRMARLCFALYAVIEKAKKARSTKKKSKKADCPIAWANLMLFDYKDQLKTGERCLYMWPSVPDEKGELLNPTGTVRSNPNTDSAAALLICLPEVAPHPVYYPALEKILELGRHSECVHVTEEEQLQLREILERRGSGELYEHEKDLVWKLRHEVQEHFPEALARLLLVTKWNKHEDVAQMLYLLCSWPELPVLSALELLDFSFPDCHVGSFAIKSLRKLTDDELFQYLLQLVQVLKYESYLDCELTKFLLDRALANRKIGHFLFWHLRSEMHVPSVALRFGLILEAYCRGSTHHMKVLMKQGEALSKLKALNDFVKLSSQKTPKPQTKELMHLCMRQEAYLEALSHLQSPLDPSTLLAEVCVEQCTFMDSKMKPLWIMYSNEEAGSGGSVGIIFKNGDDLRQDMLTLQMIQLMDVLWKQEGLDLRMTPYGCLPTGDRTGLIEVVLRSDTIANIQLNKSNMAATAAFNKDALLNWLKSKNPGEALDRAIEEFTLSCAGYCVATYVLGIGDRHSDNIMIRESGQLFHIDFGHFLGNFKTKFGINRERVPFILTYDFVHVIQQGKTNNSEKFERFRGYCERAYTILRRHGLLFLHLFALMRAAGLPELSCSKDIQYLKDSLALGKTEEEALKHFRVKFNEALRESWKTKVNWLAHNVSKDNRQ
From the text: ADP-Glo lipid kinase assay on PI3Kδ | IC50 of ZDQ-0620 against PI3K kinase in vitro.

PI3Kβ = target: T4, PI3Kβ (Homo sapiens, UniProt P42338); experiment: ADP-Glo lipid kinase assay; supported by CETSA in HCT116 cells (weaker than PI3Kα)
T4 construct: gene PIK3CB
T4 sequence (P42338 whole entry): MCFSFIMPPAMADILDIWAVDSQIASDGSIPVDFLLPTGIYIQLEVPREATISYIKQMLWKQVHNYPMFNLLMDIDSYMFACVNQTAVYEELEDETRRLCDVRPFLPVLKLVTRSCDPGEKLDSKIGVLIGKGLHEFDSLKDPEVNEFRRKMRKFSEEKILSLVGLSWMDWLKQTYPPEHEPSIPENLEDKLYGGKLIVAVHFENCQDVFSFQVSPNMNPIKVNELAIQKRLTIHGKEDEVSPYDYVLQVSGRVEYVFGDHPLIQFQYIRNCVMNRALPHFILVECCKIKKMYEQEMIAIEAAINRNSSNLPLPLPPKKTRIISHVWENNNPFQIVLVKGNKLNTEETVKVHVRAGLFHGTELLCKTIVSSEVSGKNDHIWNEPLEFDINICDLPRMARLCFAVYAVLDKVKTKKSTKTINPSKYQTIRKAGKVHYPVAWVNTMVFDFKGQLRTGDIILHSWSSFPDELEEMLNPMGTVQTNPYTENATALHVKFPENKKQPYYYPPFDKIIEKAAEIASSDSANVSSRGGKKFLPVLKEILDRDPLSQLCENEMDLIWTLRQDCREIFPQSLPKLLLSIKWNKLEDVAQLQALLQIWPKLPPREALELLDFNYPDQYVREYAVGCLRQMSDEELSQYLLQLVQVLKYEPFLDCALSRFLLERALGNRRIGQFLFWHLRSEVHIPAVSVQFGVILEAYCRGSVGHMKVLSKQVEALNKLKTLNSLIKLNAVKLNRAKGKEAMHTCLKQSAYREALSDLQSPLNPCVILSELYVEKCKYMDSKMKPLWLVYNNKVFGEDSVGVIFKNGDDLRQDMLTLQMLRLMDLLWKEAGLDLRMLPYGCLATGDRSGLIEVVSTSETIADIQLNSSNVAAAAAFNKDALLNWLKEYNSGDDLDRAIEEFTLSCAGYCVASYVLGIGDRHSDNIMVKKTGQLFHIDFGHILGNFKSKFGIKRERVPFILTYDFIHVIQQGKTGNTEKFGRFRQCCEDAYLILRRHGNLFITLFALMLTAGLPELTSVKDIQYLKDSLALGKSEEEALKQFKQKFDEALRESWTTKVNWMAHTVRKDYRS
From the text: ADP-Glo lipid kinase assay; supported by CETSA in HCT116 cells (weaker than PI3Kα) on PI3Kβ | IC50 of ZDQ-0620 against PI3K kinase in vitro.

T1 sequence (P42336 whole entry): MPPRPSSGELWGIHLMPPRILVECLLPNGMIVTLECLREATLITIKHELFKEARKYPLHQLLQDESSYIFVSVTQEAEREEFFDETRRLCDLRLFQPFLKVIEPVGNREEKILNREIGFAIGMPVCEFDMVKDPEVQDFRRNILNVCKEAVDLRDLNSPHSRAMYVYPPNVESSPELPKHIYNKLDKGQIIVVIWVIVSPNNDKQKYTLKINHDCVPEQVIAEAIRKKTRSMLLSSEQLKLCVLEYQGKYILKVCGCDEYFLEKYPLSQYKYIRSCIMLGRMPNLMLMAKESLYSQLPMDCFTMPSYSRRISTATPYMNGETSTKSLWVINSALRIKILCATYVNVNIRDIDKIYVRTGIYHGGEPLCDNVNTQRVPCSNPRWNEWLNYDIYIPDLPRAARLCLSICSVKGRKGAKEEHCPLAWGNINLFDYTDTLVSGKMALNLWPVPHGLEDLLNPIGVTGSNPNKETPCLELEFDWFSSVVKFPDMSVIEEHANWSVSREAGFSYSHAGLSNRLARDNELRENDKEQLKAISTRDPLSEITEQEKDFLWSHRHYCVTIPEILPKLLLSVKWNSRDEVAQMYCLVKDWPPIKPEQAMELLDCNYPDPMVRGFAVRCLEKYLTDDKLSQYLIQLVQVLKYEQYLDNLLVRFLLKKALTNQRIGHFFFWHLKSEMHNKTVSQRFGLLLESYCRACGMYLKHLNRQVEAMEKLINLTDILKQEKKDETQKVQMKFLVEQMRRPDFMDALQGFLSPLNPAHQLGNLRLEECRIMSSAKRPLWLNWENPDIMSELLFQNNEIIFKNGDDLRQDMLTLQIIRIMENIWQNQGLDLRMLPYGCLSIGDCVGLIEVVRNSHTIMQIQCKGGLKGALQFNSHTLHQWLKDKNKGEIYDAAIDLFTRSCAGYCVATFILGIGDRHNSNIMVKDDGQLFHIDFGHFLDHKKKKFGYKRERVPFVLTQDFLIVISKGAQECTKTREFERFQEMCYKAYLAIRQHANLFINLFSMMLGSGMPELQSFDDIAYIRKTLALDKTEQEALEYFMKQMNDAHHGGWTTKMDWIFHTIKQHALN

With `COc1ncc(-c2ccc3c(c2)N(CCCN2CCOCC2)C(=O)CO3)cc1NS(=O)(=O)c1ccc(F)cc1F` [ZDQ-0620, 2,4-difluoro-N-(2-methoxy-5-(4-(3-morpholinopropyl)-3-oxo-3,4-dihydro-2H-benzo[b][1,4]oxazin-6-yl)pyridin-3-yl)benzenesulfonamide] as the molecule, how does the IC50 (PI3Kα) read?
Its IC50 is 0.5 nM.

And the IC50 (PI3Kγ)?
Its IC50 is 55 nM.

And the IC50 (PI3Kδ)?
The IC50 was 152 nM.

And the IC50 (PI3Kβ)?
The IC50 was 93 nM.
